Assays:
Mus musculus [1] = test: Antipsychotic activity in albino mouse assessed as inhibition of apomorphine-induced climbing behaviour at 15 mg/kg, ip measured after 10 mins at 5 mins interval for 30 mins relative to control; type: functional; conditions: route intraperitoneal
Mus musculus [2] = test: Induction of catalepsy in albino mouse at 15 mg/kg, ip relative to control; type: organism-based; parameters: dose 15 mg/kg, route intraperitoneal; conditions: in vivo
Mus musculus [3] = test: Antiserotogenic activity in albino mouse assessed as inhibition of 5HTP-induced head twitches at 15 mg/kg, ip measured for 5 mins at every 5 mins interval for 1 hr relative to control; type: functional; conditions: route intraperitoneal

O=C(CN1CCN(c2ccccc2)CC1)c1ccc(-c2ccccc2)cc1
inhibition in vivo at 15 mg/kg (Mus musculus [1]): 31.9% | Activity (Mus musculus [2]): 34.53% | inhibition in vivo at 15 mg/kg (Mus musculus [3]): 28%

O=C(CN1CCN(c2ccccc2Cl)CC1)c1ccc(-c2ccccc2)cc1
inhibition in vivo at 15 mg/kg (Mus musculus [1]): 38.2% | Activity (Mus musculus [2]): 42.31% | inhibition in vivo at 15 mg/kg (Mus musculus [3]): 35.2%

Cc1ccccc1N1CCN(CC(=O)c2ccc(-c3ccccc3)cc2)CC1
inhibition in vivo at 15 mg/kg (Mus musculus [1]): 38.5% | Activity (Mus musculus [2]): 35.84% | inhibition in vivo at 15 mg/kg (Mus musculus [3]): 26.7%

COc1ccccc1N1CCN(CC(=O)c2ccc(-c3ccccc3)cc2)CC1
inhibition in vivo at 15 mg/kg (Mus musculus [1]): 53.4% | Activity (Mus musculus [2]): 29.43% | inhibition in vivo at 15 mg/kg (Mus musculus [3]): 61.3%

O=C(CN1CCN(c2cccc(Cl)c2)CC1)c1ccc(-c2ccccc2)cc1
inhibition in vivo at 15 mg/kg (Mus musculus [1]): 29.9% | Activity (Mus musculus [2]): 31.84% | inhibition in vivo at 15 mg/kg (Mus musculus [3]): 32.6%

Cc1cccc(N2CCN(CC(=O)c3ccc(-c4ccccc4)cc3)CC2)c1
inhibition in vivo at 15 mg/kg (Mus musculus [1]): 33.6% | Activity (Mus musculus [2]): 33.82% | inhibition in vivo at 15 mg/kg (Mus musculus [3]): 29.6%

O=C(CN1CCN(c2cccc(C(F)(F)F)c2)CC1)c1ccc(-c2ccccc2)cc1
inhibition in vivo at 15 mg/kg (Mus musculus [1]): 26.4% | Activity (Mus musculus [2]): 31.84% | inhibition in vivo at 15 mg/kg (Mus musculus [3]): 32.6%

O=C(CN1CCN(c2ccc(Cl)cc2)CC1)c1ccc(-c2ccccc2)cc1
inhibition in vivo at 15 mg/kg (Mus musculus [1]): 26.4% | Activity (Mus musculus [2]): 35.17% | inhibition in vivo at 15 mg/kg (Mus musculus [3]): 29.2%

O=C(CN1CCN(c2ccc(F)cc2)CC1)c1ccc(-c2ccccc2)cc1
inhibition in vivo at 15 mg/kg (Mus musculus [1]): 23.4% | Activity (Mus musculus [2]): 30.48% | inhibition in vivo at 15 mg/kg (Mus musculus [3]): 24.5%

Cc1ccc(N2CCN(CC(=O)c3ccc(-c4ccccc4)cc3)CC2)cc1
inhibition in vivo at 15 mg/kg (Mus musculus [1]): 33.3% | Activity (Mus musculus [2]): 38.66% | inhibition in vivo at 15 mg/kg (Mus musculus [3]): 29.8%

COc1ccc(N2CCN(CC(=O)c3ccc(-c4ccccc4)cc3)CC2)cc1
inhibition in vivo at 15 mg/kg (Mus musculus [1]): 32.9% | Activity (Mus musculus [2]): 59.28% | inhibition in vivo at 15 mg/kg (Mus musculus [3]): 36.1%

O=C(CN1CCN(c2cccc(Cl)c2Cl)CC1)c1ccc(-c2ccccc2)cc1
inhibition in vivo at 15 mg/kg (Mus musculus [1]): 42.8% | Activity (Mus musculus [2]): 28.97% | inhibition in vivo at 15 mg/kg (Mus musculus [3]): 38.3%

Cc1cccc(N2CCN(CC(=O)c3ccc(-c4ccccc4)cc3)CC2)c1C
inhibition in vivo at 15 mg/kg (Mus musculus [1]): 40.7% | Activity (Mus musculus [2]): 29.87% | inhibition in vivo at 15 mg/kg (Mus musculus [3]): 35.4%

O=C(CN1CCN(c2ccc(Cl)c(Cl)c2)CC1)c1ccc(-c2ccccc2)cc1
inhibition in vivo at 15 mg/kg (Mus musculus [1]): 25.7% | Activity (Mus musculus [2]): 30.5% | inhibition in vivo at 15 mg/kg (Mus musculus [3]): 38.8%

O=C1CCc2ccc(OCCCCN3CCN(c4cccc(Cl)c4Cl)CC3)cc2N1 [ARIPIPRAZOLE]
inhibition in vivo at 15 mg/kg (Mus musculus [1]): 61.1% | Activity (Mus musculus [2]): 26.86% | inhibition in vivo at 15 mg/kg (Mus musculus [3]): 94.5%
